The subject of test [1] is F10T (DNA, hairpin, hexaethylene glycol (HEG) linker between nucleotides 10 and 11) TATAGCTATATATAGCTATA
Put plainly: FRET melting. As to conditions: 60 mM K+; 0.2 μM DNA, 1.0 μM compound (methods text: 2 μM, 100 mM LiCl); cacodylate pH 7.4.

In test [2] the test system is Fc-kit1T (DNA, G4) AGGGAGGGCGCTGGGAGGAGGG
Put plainly: microscale thermophoresis. As to conditions: 100 mM K+; 10 mM Tris-HCl pH 7.4. A general note: MST reads how a fluorescent partner responds to local heating, with and without ligand.

The subject of test [3] is F21T (DNA, G4) GGGTTAGGGTTAGGGTTAGGG
Nature of the test: FRET melting. The following applies: 60 mM K+; 0.2 μM DNA, 1.0 μM compound (methods text: 2 μM, 100 mM LiCl); cacodylate pH 7.4.

For test [4], the system named is FPu18T (DNA, G4) AGGGTGGGGAGGGTGGGG
Put plainly: FRET melting. The following applies: 60 mM K+; 0.2 μM DNA, 1.0 μM compound (methods text: 2 μM, 100 mM LiCl); cacodylate pH 7.4.

Test [5] concerns Fc-kit1T (DNA, G4) AGGGAGGGCGCTGGGAGGAGGG
Nature of the test: FRET melting. The following applies: 60 mM K+; 0.2 μM DNA, 1.0 μM compound (methods text: 2 μM, 100 mM LiCl); cacodylate pH 7.4.

Consider eight compounds from paper PMC6100468 (2018).

A word on the ΔTm: it is the shift of the melting midpoint relative to a reference. The Kd is the concentration at which binding is half-saturated. Low values mean tighter binding, high ones weaker binding.

On to `COc1cc2c(cc1OC)-c1cc3ccc(OC)c(OCC(=O)N[C@@H](Cc4ccccc4)C(=O)N[C@@H](Cc4cnc[nH]4)C(=O)N[C@@H](CCCNC(=N)N)C(N)=O)c3c[n+]1CC2`, for which the ΔTm in test [1] came to 0.0 ± 1.0 °C. This compound also came in with a Kd in test [2] of 9.68 ± 0.57 µM.

With `COc1cc2c(cc1OC)-c1cc3ccc(OC)c(OC)c3c[n+]1CC2`, the ΔTm was 1.8 ± 0.2 °C in test [3] and 11.2 ± 0.1 °C in test [4]. The same compound registered an equilibrium dissociation constant (Kd) in test [2] of 3.25 ± 0.32 µM.

In test [2], `COc1cc2c(cc1OC)-c1cc3ccc(OC)c(OCC(=O)N[C@@H](CCCCN)C(=O)N[C@@H](CCCNC(=N)N)C(N)=O)c3c[n+]1CC2` registered a Kd of 2.65 ± 0.33 µM.

`COc1cc2c(cc1OC)-c1cc3ccc(OC)c(OCC(=O)N[C@@H](Cc4ccccc4)C(=O)N[C@@H](CCCCN)C(=O)N[C@@H](CCCN=C(N)N)C(N)=O)c3c[n+]1CC2`: the dissociation constant Kd in test [2] is 6.60 ± 0.472 µM. This Kd is about 2.5-fold higher than that of the compound before.

In test [2], `COc1cc2c(cc1OC)-c1cc3ccc(OC)c(OCC(=O)N[C@@H](Cc4ccccc4)C(=O)NCC(=O)N[C@@H](CCCCN)C(N)=O)c3c[n+]1CC2` showed a Kd of 11.10 ± 0.51 µM. Moreover, the results for the ΔTm in test [5] and in test [4] were 6.1 ± 0.9 °C and 5.0 ± 1.0 °C, respectively.

For the compound `COc1cc2c(cc1OC)-c1cc3ccc(OC)c(OCC(=O)N[C@@H](CCCCN)C(=O)N[C@@H](Cc4ccccc4)C(=O)N[C@@H](CCCNC(=N)N)C(N)=O)c3c[n+]1CC2`, in test [3], the thermal shift (ΔTm) turned out to be 0.0 ± 1.2 °C. In test [2], this compound came in with a Kd of 8.00 ± 0.89 µM.

On to `COc1cc2c(cc1OC)-c1cc3ccc(OC)c(OCC(=O)N[C@@H](Cc4ccccc4)C(=O)N[C@@H](CCCNC(=N)N)C(N)=O)c3c[n+]1CC2`, for which the ΔTm in test [3] was 11.0 ± 0.1 °C; in test [1], 0.8 ± 0.4 °C; in test [5], 21.7 ± 0.8 °C; in test [4] it was 23.8 ± 0.6 °C. Moreover, in test [2], the Kd turned out to be 1.41 ± 0.09 µM.

In the case of `COc1cc2c(cc1OC)-c1cc3ccc(OC)c(OCC(=O)N[C@@H](CCCNC(=N)N)C(=O)N[C@@H](CCCNC(=N)N)C(N)=O)c3c[n+]1CC2`, the thermal shift (ΔTm) is 10.6 ± 0.2 °C in test [3] and 19.6 ± 0.9 °C in test [4]. This compound returned a Kd in test [2] of 1.47 ± 0.12 µM.
